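Growth conditions: 96-well plates. Treatment: test compound, 48 hours, 5 concentrations. Analysis: linear interpolation between bracketing concentrations; unreached endpoints set to highest concentration. GI50 = concentration required for 50% inhibition of growth.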 Activity calls are given as the source filed them. Cut-off read from the data, not from the text of the source: active = GI50 up to about 1.1 µM and inactive = higher.
Experiments:
Test in all cases: NCI anticancer screen, dose series, 48 h
HCT-15 = tested on: HCT-15
ACHN = tested on: ACHN
SN12C = tested on: SN12C
HL-60 = tested on: HL-60
RXF 393 = tested on: RXF 393
HCC 2998 = tested on: HCC 2998
IGROV-1 = tested on: IGROV-1
DU-145 = tested on: DU-145
SNB-75 = tested on: SNB-75
UACC-62 = tested on: UACC-62
SK-MEL-2 = tested on: SK-MEL-2
UO-31 = tested on: UO-31
EKVX = tested on: EKVX
CCRF-CEM = tested on: CCRF-CEM
BT-549 = tested on: BT-549
SW-620 = tested on: SW-620
PC-3 = tested on: PC-3
KM12 = tested on: KM12
MCF7 = tested on: MCF7
COLO 205 = tested on: COLO 205
HOP-62 = tested on: HOP-62
K562 = tested on: K562
MDA-MB-231 = tested on: MDA-MB-231
SNB-19 = tested on: SNB-19
A549 = tested on: A549
786-0 = tested on: 786-0
SK-MEL-5 = tested on: SK-MEL-5
SK-OV-3 = tested on: SK-OV-3
NCI-H460 = tested on: NCI-H460
Malme-3M = tested on: Malme-3M
HT-29 = tested on: HT-29
HCT-116 = tested on: HCT-116
NCI/ADR-RES = tested on: NCI/ADR-RES
RPMI-8226 = tested on: RPMI-8226
LOX IMVI = tested on: LOX IMVI
OVCAR-8 = tested on: OVCAR-8
SF-268 = tested on: SF-268
MOLT-4 = tested on: MOLT-4
U-251 = tested on: U-251
M14 = tested on: M14
A498 = tested on: A498
SF-295 = tested on: SF-295
NCI-H226 = tested on: NCI-H226
OVCAR-3 = tested on: OVCAR-3
OVCAR-4 = tested on: OVCAR-4
OVCAR-5 = tested on: OVCAR-5
SR = tested on: SR
MDA-MB-435 = tested on: MDA-MB-435
Hs-578T = tested on: Hs-578T
NCI-H23 = tested on: NCI-H23
CAKI-1 = tested on: CAKI-1
MDA-N = tested on: MDA-N
NCI-H522 = tested on: NCI-H522
SK-MEL-28 = tested on: SK-MEL-28
T47D = tested on: T47D
UACC-257 = tested on: UACC-257
SF-539 = tested on: SF-539
TK-10 = tested on: TK-10

For Nc1ccc(I)cn1, the GI50 (HCT-15) was over 100 µM, the GI50 (ACHN) was > 100 µM (inactive) and the GI50 (SN12C) was > 100 µM (inactive). The GI50 (HL-60) was > 100 µM (inactive), the GI50 (RXF 393) was > 100 µM (inactive) and the GI50 (HCC 2998) was > 100 µM (inactive). For the same compound, the GI50 (IGROV-1) was > 100 µM (inactive), the GI50 (DU-145) was > 100 µM (inactive) and the GI50 (SNB-75) was > 100 µM (inactive). For the same compound, the GI50 (UACC-62) was > 100 µM (inactive), the GI50 (SK-MEL-2) was > 100 µM (inactive) and the GI50 (UO-31) was > 100 µM (inactive). For the same compound, the GI50 (EKVX) was > 100 µM (inactive), the GI50 (CCRF-CEM) was > 100 µM (inactive) and the GI50 (BT-549) was > 100 µM (inactive). The GI50 (SW-620) was > 100 µM (inactive), the GI50 (PC-3) was > 100 µM (inactive) and the GI50 (KM12) was > 100 µM (inactive). The GI50 (MCF7) was > 100 µM (inactive), the GI50 (COLO 205) was > 100 µM (inactive) and the GI50 (HOP-62) was > 100 µM (inactive). For the same compound, the GI50 (K562) was > 100 µM (inactive), the GI50 (MDA-MB-231) was > 100 µM (inactive) and the GI50 (SNB-19) was > 100 µM (inactive). For the same compound, the GI50 (A549) was > 100 µM (inactive), the GI50 (786-0) was > 100 µM (inactive) and the GI50 (SK-MEL-5) was > 100 µM (inactive). The GI50 (SK-OV-3) was > 100 µM (inactive), the GI50 (NCI-H460) was > 100 µM (inactive) and the GI50 (Malme-3M) was > 100 µM (inactive). The GI50 (HT-29) was > 100 µM (inactive), the GI50 (HCT-116) was > 100 µM (inactive) and the GI50 (NCI/ADR-RES) was > 100 µM (inactive). For the same compound, the GI50 (RPMI-8226) was > 100 µM (inactive), the GI50 (LOX IMVI) was > 100 µM (inactive) and the GI50 (OVCAR-8) was > 100 µM (inactive). The GI50 (SF-268) was > 100 µM (inactive), the GI50 (MOLT-4) was > 100 µM (inactive) and the GI50 (U-251) was > 100 µM (inactive). The GI50 (M14) was > 100 µM (inactive), the GI50 (A498) was > 100 µM (inactive) and the GI50 (SF-295) was > 100 µM (inactive). The GI50 (NCI-H226) was > 100 µM (inactive), the GI50 (OVCAR-3) was > 100 µM (inactive) and the GI50 (OVCAR-4) was > 100 µM (inactive). For the same compound, the GI50 (OVCAR-5) was > 100 µM (inactive), the GI50 (SR) was > 100 µM (inactive) and the GI50 (MDA-MB-435) was > 100 µM (inactive). For the same compound, the GI50 (Hs-578T) was > 100 µM (inactive), the GI50 (NCI-H23) was > 100 µM (inactive) and the GI50 (CAKI-1) was > 100 µM (inactive). The GI50 (MDA-N) was > 100 µM (inactive), the GI50 (NCI-H522) was > 100 µM (inactive) and the GI50 (SK-MEL-28) was > 100 µM (inactive). The GI50 (T47D) was > 100 µM (inactive).
With N#Cc1ncn(CCO)c1N the GI50 (HCT-15) was over 100 µM, the GI50 (ACHN) was > 100 µM (inactive) and the GI50 (SN12C) was > 100 µM (inactive). For the same compound, the GI50 (HL-60) was > 100 µM (inactive), the GI50 (HCC 2998) was > 100 µM (inactive) and the GI50 (IGROV-1) was > 100 µM (inactive). For the same compound, the GI50 (DU-145) was > 100 µM (inactive), the GI50 (SNB-75) was > 100 µM (inactive) and the GI50 (UACC-62) was > 100 µM (inactive). The GI50 (UACC-257) was > 100 µM (inactive), the GI50 (SK-MEL-2) was > 100 µM (inactive) and the GI50 (UO-31) was > 100 µM (inactive). The GI50 (EKVX) was > 100 µM (inactive), the GI50 (CCRF-CEM) was > 100 µM (inactive) and the GI50 (SF-539) was > 100 µM (inactive). The GI50 (BT-549) was > 100 µM (inactive), the GI50 (SW-620) was > 100 µM (inactive) and the GI50 (PC-3) was > 100 µM (inactive). For the same compound, the GI50 (KM12) was > 100 µM (inactive), the GI50 (MCF7) was > 100 µM (inactive) and the GI50 (COLO 205) was > 100 µM (inactive). The GI50 (HOP-62) was > 100 µM (inactive), the GI50 (K562) was > 100 µM (inactive) and the GI50 (MDA-MB-231) was > 100 µM (inactive). For the same compound, the GI50 (SNB-19) was > 100 µM (inactive), the GI50 (A549) was > 100 µM (inactive) and the GI50 (786-0) was > 100 µM (inactive). For the same compound, the GI50 (SK-MEL-5) was > 100 µM (inactive), the GI50 (SK-OV-3) was > 100 µM (inactive) and the GI50 (NCI-H460) was > 100 µM (inactive). The GI50 (Malme-3M) was > 100 µM (inactive), the GI50 (HT-29) was > 100 µM (inactive) and the GI50 (HCT-116) was > 100 µM (inactive). For the same compound, the GI50 (NCI/ADR-RES) was > 100 µM (inactive), the GI50 (RPMI-8226) was > 100 µM (inactive) and the GI50 (LOX IMVI) was > 100 µM (inactive). The GI50 (OVCAR-8) was > 100 µM (inactive), the GI50 (SF-268) was > 100 µM (inactive) and the GI50 (MOLT-4) was > 100 µM (inactive). For the same compound, the GI50 (U-251) was > 100 µM (inactive), the GI50 (M14) was > 100 µM (inactive) and the GI50 (A498) was > 100 µM (inactive). For the same compound, the GI50 (SF-295) was > 100 µM (inactive), the GI50 (NCI-H226) was > 100 µM (inactive) and the GI50 (OVCAR-3) was > 100 µM (inactive). For the same compound, the GI50 (OVCAR-4) was > 100 µM (inactive), the GI50 (TK-10) was > 100 µM (inactive) and the GI50 (OVCAR-5) was > 100 µM (inactive). For the same compound, the GI50 (SR) was > 100 µM (inactive), the GI50 (MDA-MB-435) was > 100 µM (inactive) and the GI50 (Hs-578T) was > 100 µM (inactive). The GI50 (NCI-H23) was > 100 µM (inactive), the GI50 (CAKI-1) was > 100 µM (inactive) and the GI50 (MDA-N) was > 100 µM (inactive). The GI50 (NCI-H522) was > 100 µM (inactive), the GI50 (SK-MEL-28) was > 100 µM (inactive) and the GI50 (T47D) was > 100 µM (inactive).

Reference: ChEMBL document CHEMBL1201862, “PubChem BioAssay data set” (2004)
